Results published in patent publication US9309221B2, “1-substituted indazole derivative” (Dainippon Sumitomo Pharma Co., Ltd., priority 2012, dated 2016).

Molecular target: T1, human α7 nAChR (Homo sapiens, UniProt P36544)
T1 construct: expressed in transfected cells; host or cells: GH4C1 cells (rat pituitary, ATCC CCL-82.2)
Assay: Evaluation of PAM activity with human α7 nACh receptor stably expressing cells (aequorin luminescence, FDSS7000)
Format: cell-based
Conditions: ratio of RLU (Max-Min) of test wells to control wells, ACh at EC20
Text: Evaluation of PAM Activity with Human α7 nACh Receptor Stably Expressing Cells
(1) Human α7 nAChR stably expressing cells
Human α7 nAChR stably expressing cells were generated and cultured. In detail, GH4C1 cells derived from rat pituitary (cat#CCL-82.2, ATCC, USA) were used as a host cell. PcDNA3.1Zeo vector containing a nucleotide sequence encoding a protein GenBank BAC81731 and pcDNA3.1 vector containing human α7 nAChR gene (cat#V790-20, invitrogen, Carlsbad, Calif., USA) were transfected to the cells to give aequorins and human α7 nAChR stably expressing cells respectively. The aequorins and human α7 nAChR stably expressing cells were screened with Zeocin (cat#R25001, invitrogen, Carlsbad, Calif., USA) and Geneticin (cat#10131-027, invitrogen, Carlsbad, Calif., USA) respectively.
The cells were cultured in F-10 Nutrient Mixture (Ham) medium (cat#11550-043, invitrogen, Carlsbad, Calif., USA) containing 2.5% fetal bovine serum (cat#2917354, ICN Biomedicals, Inc, USA), 15% inactivated horse serum (cat#26050-088, invitrogen, Carlsbad, Calif., USA), 1 μg/mL Geneticin, and 5 μg/mL Puromycin (cat#14861-84, invitrogen, Carlsbad, Calif., USA), in a Collagen Type 1-coated dish (cat#4030-010, iwaki, Tokyo, Japan). During the culture, the medium was replaced with fresh medium in every 2 to 3 days, and the cells were treated with TrypLE Express (cat#45604-021, invitrogen, Carlsbad, Calif., USA) to collect them in every 7 days. Thus, the cells were subcultured.
7 Days after subculturing, the cells were treated with TrypLE Express to collect them when they were about 80% confluent. The cells were suspended in a reaction medium containing Hanks (cat#14065-056, invitrogen, Carlsbad, Calif., USA)/20 mmol/L Hepes (cat#15630-080, invitrogen, Carlsbad, Calif., USA), Buffer (pH 7.4), F-10 Nutrient Mixture (Ham), and 0.1 mg/mL Geneticin, and the suspension was seeded in a 384-well plate (cat#781090, Greiner, Germany) at 20000 cells/25 μL per well.
On the next day after seeding, Viviren (cat#E649X, Promega, Madison, Wis., USA) was added to the medium so that the final concentration could be 4 μmol/L (15 μL/well). The plates were centrifuged and then placed in the dark for 4 hours at room temperature.
(2) Preparation of the Test Samples
Each of the test compounds was dissolved in DMSO to prepare each test sample at a concentration of 1000-fold the final concentration. To the solution was added Hanks/20 mM HEPES/0.2% BSA (cat#A3803, Sigma, St. Louis, Mo., USA), and the concentration was adjusted to 6-fold the final concentration.
(3) Evaluation of PAM Activity
FDSS7000 (Hamamatsu Photonics) was used to detect the luminescence signal evoked by α7 nAChR stimulation. The cells and a luminescent substrate were put on a plate, and the test sample was added thereto. […] After the addition of ACh, the luminescence signal (the central wavelength: 465 nm) was measured for 138 seconds to calculate RLU (Max-Min). The ratio of the RLU (Max-Min) of the test-compound-containing wells to that of the control wells was defined as PAM activity.

T1 sequence (P36544 23-502): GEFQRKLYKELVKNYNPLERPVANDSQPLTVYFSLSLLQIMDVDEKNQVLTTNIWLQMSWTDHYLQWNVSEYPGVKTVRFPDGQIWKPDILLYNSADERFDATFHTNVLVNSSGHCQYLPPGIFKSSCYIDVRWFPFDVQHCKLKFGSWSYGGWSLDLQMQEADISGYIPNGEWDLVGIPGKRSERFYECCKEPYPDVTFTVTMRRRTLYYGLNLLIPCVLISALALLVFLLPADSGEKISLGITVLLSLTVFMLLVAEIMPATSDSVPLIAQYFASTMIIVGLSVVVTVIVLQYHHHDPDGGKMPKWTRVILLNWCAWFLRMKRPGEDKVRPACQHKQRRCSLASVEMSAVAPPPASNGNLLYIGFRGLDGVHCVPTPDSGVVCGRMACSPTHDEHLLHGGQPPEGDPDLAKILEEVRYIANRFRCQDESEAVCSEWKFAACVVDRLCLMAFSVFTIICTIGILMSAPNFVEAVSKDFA

PAM activity for α7 nAChR (in words) | Structure (SMILES)
stronger PAM activity than others | COc1ccc2c(cnn2C2CCN(C(=O)NC3CCCCC3)CC2)c1 [Example 40]
stronger PAM activity than others | CCc1ccc2c(cnn2[C@H]2CC[C@@H](NC(=O)C3CCC(F)(F)CC3)CC2)c1 [Example 4, N-(cis-4-(5-ethyl-1H-indazol-1-yl)cyclohexyl)-4,4-difluorocyclohexanecarboxamide]
stronger PAM activity than others | COCC1CCC(NC(=O)N2CCC(n3ncc4cc(C)ccc43)CC2)CC1 (centres unmarked) [Example 220]
stronger PAM activity than others | Cc1ccc2c(cnn2C2CCN(C(=O)NC3CCCCC3)CC2)c1 [Example 8, N-cyclohexyl-4-(5-methyl-1H-indazol-1-yl)piperidine-1-carboxamide]
stronger PAM activity than others | CCc1ccc2c(cnn2[C@H]2CC[C@@H](NC(=O)C3CCCCC3)CC2)c1 [Example 119]
stronger PAM activity than others | COc1ccc2c(cnn2C2CCN(C(=O)NC3CCC(F)(F)CC3)CC2)c1 [Example 41, N-(4,4-difluorocyclohexyl)-4-(5-methoxy-1H-indazol-1-yl)piperidine-1-carboxamide]
stronger PAM activity than others | CCc1ccc2c(cnn2C2CCN(C(=O)NC3CCCC3)CC2)c1 [Example 20]
stronger PAM activity than others | Cc1ccc2c(cnn2C2CCN(C(=O)NC3CCC(F)(F)CC3)CC2)c1 [Example 13, N-(4,4-difluorocyclohexyl)-4-(5-methyl-1H-indazol-1-yl)piperidine-1-carboxamide]

Structure (SMILES) | PAM activity for α7 nAChR (in words)
CCOc1ccc2c(cnn2C2CCN(C(=O)NC3CCCC3)CC2)c1 [Example 17] | stronger PAM activity than others
CCc1ccc2c(cnn2C2CCN(C(=O)NC3CCC(F)(F)CC3)CC2)c1 [Example 23] | stronger PAM activity than others

Same assay, conditions: test compound 10 μmol/L; ACh at EC20; ratio of RLU (Max-Min) of test-compound wells to control wells; human α7 nAChR expressing GH4C1 cells

α7PAM (%) @ 10 μmol/L [%] | Structure (SMILES)
89 | COC1CCC(NC(=O)N2CCC(n3ncc4c(Br)cccc43)CC2)CC1 (centres unmarked) [Example 98]
1368 | CCc1ccc2c(cnn2[C@H]2CC[C@@H](NC(=O)NC3CCC(F)(F)CC3)CC2)c1 [Example 5, 1-(4,4-difluorocyclohexyl)-3-(cis-4-(5-ethyl-1H-indazol-1-yl)cyclohexyl)urea]
1576 | Cc1ccc2c(c1)c(C)nn2C1CCN(C(=O)NC2CCC(F)(F)CC2)CC1 [Example 45, N-(4,4-difluorocyclohexyl)-4-(3,5-dimethyl-1H-indazol-1-yl)piperidine-1-carboxamide]
2344 | CCc1ccc2c(cnn2[C@H]2CC[C@@H](NC(=O)C3CCC(F)(F)CC3)CC2)c1 [Example 4, N-(cis-4-(5-ethyl-1H-indazol-1-yl)cyclohexyl)-4,4-difluorocyclohexanecarboxamide]
1202 | CC(C)Oc1ccc2c(cnn2C2CCN(C(=O)NC3CCCCC3)CC2)c1 [Example 48, N-cyclohexyl-4-(5-isopropoxy-1H-indazol-1-yl)piperidine-1-carboxamide]
360 | COc1c(C(F)(F)F)ccc2c1cnn2C1CCN(C(=O)NC2CCC(OC)CC2)CC1 (centres unmarked) [Example 317]
410 | CCc1ccc2c(cnn2[C@H]2CC[C@@H](NC(=O)[C@H]3CC[C@H](OC)CC3)CC2)c1 [Example 122]
3053 | Cc1ccc2c(cnn2C2CCN(C(=O)NC3CCCCC3)CC2)c1 [Example 8, N-cyclohexyl-4-(5-methyl-1H-indazol-1-yl)piperidine-1-carboxamide]
800 | COCc1c(C)ccc2c1cnn2C1CCN(C(=O)NC2CCC(F)(F)CC2)CC1 [Example 213]
420 | CCCc1ccc2c(cnn2C2CCN(C(=O)NC3CCC(OC)CC3)CC2)c1 (centres unmarked) [Example 76]
480 | CO[C@H]1CC[C@H](NC(=O)N2CCC(n3ncc4c(C)c(C)ccc43)CC2)CC1 [Example 225]
380 | O=C(NC1CCOCC1)N1CCC(n2ncc3c(OC(F)(F)F)cccc32)CC1 [Example 304]
860 | COC(C)c1c(C)ccc2c1cnn2C1CCN(C(=O)NC2CCC(F)(F)CC2)CC1 (centres unmarked) [Example 232]
420 | Cc1ccc2c(cnn2C2CCN(C(=O)NC3CCC(OCC(F)(F)F)CC3)CC2)c1 (centres unmarked) [Example 83]
410 | CCc1ccc2c(cnn2C2CCN(C(=O)C3CCOCC3)CC2)c1 [Example 111]
370 | O=C(NC1CCC(F)(F)CC1)N1CCC(n2ncc3c(OC(F)F)cccc32)CC1 [Example 201]
430 | COCc1nn(C2CCN(C(=O)NC3CCCCC3)CC2)c2ccc(C)cc12 [Example 68]

α7PAM (%) @ 10 μmol/L [%] | Structure (SMILES)
1093 | CCc1ccc2c(cnn2C2CCN(C(=O)NC3CCOCC3)CC2)c1OC [Example 275, 4-(5-ethyl-4-methoxy-1H-indazol-1-yl)-N-(tetrahydro-2H-pyran-4-yl)piperidine-1-carboxamide]
1467 | CCO[C@H]1CC[C@H](NC(=O)N2CCC(n3ncc4cc(C)ccc43)CC2)CC1 [Example 90, N-(trans-4-ethoxycyclohexyl)-4-(5-methyl-1H-indazol-1-yl)piperidine-1-carboxamide]
1463 | O=C(NC1CCC(F)(F)CC1)N1CCC(n2ncc3cc(OC4CC4)ccc32)CC1 [Example 249, 4-[5-(cyclopropoxy)-1H-indazol-1-yl]-N-(4,4-difluorocyclohexyl)piperidine-1-carboxamide]
210 | CO[C@H]1CC[C@H](NC(=O)N2CCC(n3ncc4cc(-c5ccc(F)cc5)ccc43)CC2)CC1 [Example 155]
190 | O=C(C1CCOCC1)N1CCC(n2ncc3cc(F)ccc32)CC1 [Example 104]
3749 | COc1ccc2c(cnn2C2CCN(C(=O)NC3CCC(F)(F)CC3)CC2)c1 [Example 41, N-(4,4-difluorocyclohexyl)-4-(5-methoxy-1H-indazol-1-yl)piperidine-1-carboxamide]
1034 | CO[C@H]1CCC[C@H](NC(=O)N2CCC(n3ncc4cc(C5CC5)ccc43)CC2)C1 [Example 211, 4-(5-cyclopropyl-1H-indazol-1-yl)-N-[(1S,3S)-3-methoxycyclohexyl]piperidine-1-carboxamide]
1096 | CCc1ccc2c(cnn2C2CCN(C(=O)N[C@H]3CC[C@H](OC)CC3)CC2)c1OC [Example 255, 4-(5-ethyl-4-methoxy-1H-indazol-1-yl)-N-(trans-4-methoxycyclohexyl)piperidine-1-carboxamide]
1425 | CCc1ccc2c(cnn2C2CCN(C(=O)NC3CCCOC3)CC2)c1 (centres unmarked) [Example 22, 4-(5-ethyl-1H-indazol-1-yl)-N-(tetrahydro-2H-pyran-3-yl)piperidine-1-carboxamide]
430 | COCCCc1ccc2c(cnn2C2CCN(C(=O)N[C@H]3CC[C@H](OC)CC3)CC2)c1 [Example 32]
1433 | CO[C@H]1CC[C@H](NC(=O)N2CCC(n3ncc4cc(OC(F)F)ccc43)CC2)CC1 [Example 291, 4-[5-(difluoromethoxy)-1H-indazol-1-yl]-N-(trans-4-methoxycyclohexyl)piperidine-1-carboxamide]
1033 | Cc1ccc2c(cnn2C2CCN(C(=O)N[C@H]3CCCC3(F)F)CC2)c1 [Example 80, (S)—N-(2,2-difluorocyclopentyl)-4-(5-methyl-1H-indazol-1-yl)piperidine-1-carboxamide]
1064 | Cc1ccc2c(cnn2C2CCN(C(=O)N[C@H]3CCCCC3(F)F)CC2)c1 [Example 79, (S)—N-(2,2-difluorocyclohexyl)-4-(5-methyl-1H-indazol-1-yl)piperidine-1-carboxamide]
220 | O=C(Nc1ccc(C(F)(F)F)nc1)N1CCC(n2ncc3cc(C4CC4)ccc32)CC1 [Example 187]
1673 | CCOc1ccc2c(cnn2C2CCN(C(=O)NC3CCC(F)(F)CC3)CC2)c1 [Example 27, N-(4,4-difluorocyclohexyl)-4-(5-ethoxy-1H-indazol-1-yl)piperidine-1-carboxamide]
3399 | Cc1ccc2c(cnn2C2CCN(C(=O)NC3CCC(F)(F)CC3)CC2)c1 [Example 13, N-(4,4-difluorocyclohexyl)-4-(5-methyl-1H-indazol-1-yl)piperidine-1-carboxamide]
200 | CCOc1cccc2c1cnn2C1CCN(C(=O)N[C@H]2CC[C@@H](OC)CC2)CC1 [Example 184]
